US10357036B2, “Compounds for controlling arthropods” (priority 2015, dated 2019)

Assays:
Musca domestica = Musca domestica test; assay type: in vivo; conditions: 100 ppm; adult houseflies; after 2 days
Procedure: (§1) • Solvent: dimethyl sulfoxide
To produce a suitable active ingredient formulation, 10 mg of active ingredient are mixed with 0.5 ml of dimethyl sulfoxide, and the concentrate is diluted with water to the desired concentration.
Vessels containing a sponge treated with sugar solution and the active ingredient formulation of the desired concentration are populated with 10 adult houseflies (Musca domestica).

Spodoptera frugiperda = Spodoptera frugiperda spray test; assay type: in vivo; conditions: 100 g/ha; after 7 days
Phaedon cochleariae = Phaedon cochleariae spray test; conditions: 100 g/ha; after 7 days
Boophilus microplus = Boophilus microplus injection test; assay type: in vivo; conditions: 20 μg/animal; assessed after 7 days
Procedure: as §1
1 μl of the active ingredient solution is injected into the abdomen of 5 engorged adult female cattle ticks (Boophilus microplus). The animals are transferred into dishes and kept in a climate-controlled room.

Ctenocephalides felis = Ctenocephalides felis oral test; assay type: in vivo; conditions: 100 ppm in citrated cattle blood; after 2 days
Procedure: • Solvent: Dimethyl Sulfoxide
To produce a suitable active ingredient formulation, 10 mg of active ingredient are mixed with 0.5 ml of dimethyl sulfoxide. Dilution with citrated cattle blood gives the desired concentration.
About 20 unfed adult cat fleas (Ctenocephalides fells) are placed into a chamber which is closed at the top and bottom with gauze. A metal cylinder whose bottom end is closed with parafilm is placed onto the chamber. The cylinder contains the blood/active ingredient formulation, which can be imbibed by the fleas through the parafilm membrane.

Tetranychus urticae = Tetranychus urticae spray test, OP-resistant (bean leaf discs); assay type: in vivo; conditions: 100 g/ha; after 6 days
Procedure: After 6 days, the efficacy in % is determined.

Rhipicephalus sanguineus = Rhipicephalus sanguineus in vitro contact test with adult brown dog ticks; assay type: in vivo; conditions: application rate 5 μg/cm^2 (=500 g/ha); after 48 h; dead or moribund ticks
Procedure: For the coating of the test tubes, 9 mg of active ingredient are first dissolved in 1 ml of acetone p.a. and then diluted to the desired concentration with acetone p.a. 250 μl of the solution are distributed homogeneously on the inner walls and the base of a 25 ml glass tube by turning and rocking on an orbital shaker (rocking rotation at 30 rpm for 2 h). With 900 ppm of active ingredient solution and internal surface area 44.7 cm^2, given homogeneous distribution, an area-based dose of 5 μg/cm^2 is achieved.
After the solvent has evaporated off, the tubes are populated with 5-10 adult dog ticks (Rhipicephalus sanguineus), sealed with a perforated plastic lid and incubated in a horizontal position in the dark at room temperature and ambient humidity. After 48 h, efficacy is determined. To this end, the ticks are knocked to the base of the tube and incubated on a hotplate at 45-50° C. for not more than 5 min. Ticks which remain motionless on the base or move in such an uncoordinated manner that they are unable to deliberately avoid the heat by climbing upwards are considered to be dead or moribund.
An efficacy of 100% means that all the ticks were dead or moribund. 0% efficacy means that none of the ticks were harmed.

SMILES	efficacy (rate of extermination) (Musca domestica) [%]	efficacy (Spodoptera frugiperda) [%]	efficacy (Phaedon cochleariae) [%]	efficacy (laying of fertile eggs) (Boophilus microplus) [%]	efficacy (rate of extermination) (Ctenocephalides felis) [%]	efficacy (Tetranychus urticae) [%]	efficacy (Rhipicephalus sanguineus) [%]
CC(=O)NCc1cc(-c2cnn(-c3c(Cl)cc(C(F)(C(F)(F)F)C(F)(F)F)cc3Cl)c2)ccc1C(F)(F)F [Ia-74]	100	100	100	100	100	100	
CCC(=O)NCc1cc(-c2cnn(-c3c(Cl)cc(C(F)(C(F)(F)F)C(F)(F)F)cc3Cl)c2)ccc1C(F)(F)F [Ia-72]	100	100	100	100	100	100	
CCC(=O)NCc1cc(-c2cnn(-c3c(Cl)cc(C(F)(C(F)(F)F)C(F)(F)F)cc3OC(F)(F)F)c2)cnc1Cl [Ia-133]	100	100	100	100	100		
CC(C)CC(=O)NCc1cc(-c2cnn(-c3c(Cl)cc(C(F)(C(F)(F)F)C(F)(F)F)cc3C(F)F)c2)ccc1F [Ia-61]	80	100		100	100	70	
CC(=O)NCc1cccc(-c2cnn(-c3c(Cl)cc(C(F)(C(F)(F)F)C(F)(F)F)cc3C(F)F)c2)c1 [Ia-02]	100	100	100	100	100	100	
O=C(NCc1cc(-c2cnn(-c3c(Cl)cc(C(F)(C(F)(F)F)C(F)(F)F)cc3Cl)c2)cnc1Cl)C1CC1 [Ia-18]	100	100	100	100	100		
CCCCC(=O)NCc1cc(-c2cnn(-c3c(Cl)cc(C(F)(C(F)(F)F)C(F)(F)F)cc3C(F)F)c2)ccc1F [Ia-59]	100	100	100	100	100	100	
CCC(=O)NC1CCc2ccc(-c3cnn(-c4c(Cl)cc(C(F)(C(F)(F)F)C(F)(F)F)cc4C(F)(F)F)c3)cc21 (centres unmarked) [I-Tc-02]		100		100	100		80
CCC(=O)NCc1cccc(-c2cnn(-c3c(Cl)cc(C(F)(C(F)(F)F)C(F)(F)F)cc3C(F)(F)F)c2)c1F [Ia-150]	100	100	100	100	100	90	
CN(Cc1cc(-c2cnn(-c3c(Cl)cc(C(F)(C(F)(F)F)C(F)(F)F)cc3Cl)c2)ccc1Cl)S(C)(=O)=O [Ic-04]	100	100	100		100	100	
O=C(CC(F)(F)F)NCc1cc(-c2cnn(-c3c(Cl)cc(C(F)(C(F)(F)F)C(F)(F)F)cc3Cl)c2)ccc1Cl [Ia-35]	100	100		100	100		
CC(=O)N(C)Cc1cc(-c2cnn(-c3c(Cl)cc(C(F)(C(F)(F)F)C(F)(F)F)cc3Br)c2)ccc1Cl [Ia-99]		100	100			100	
CCC(=O)NCc1cc(-c2cnn(-c3c(Cl)cc(C(F)(C(F)(F)F)C(F)(F)F)cc3Cl)c2)cnc1Cl [Ia-132]	100	100	100	100	100		
N#Cc1cc(C(F)(C(F)(F)F)C(F)(F)F)cc(Cl)c1-n1cc(-c2cccc(CNC(=O)C3CC3)c2)cn1 [Ia-98]	90		100	100	100	90	
CC(=O)NCc1cccc(-c2cnn(-c3c(Cl)cc(C(F)(C(F)(F)F)C(F)(F)F)cc3C(F)F)c2)c1F [Ia-144]	100	100	100	100	100	90	
CCC(=O)N(C)Cc1cc(-c2cnn(-c3c(Cl)cc(C(F)(C(F)(F)F)C(F)(F)F)cc3Cl)c2)ccc1Br [Ia-167]		100	100			100	
CC(=O)N(C)Cc1cc(-c2cnn(-c3c(Cl)cc(C(F)(C(F)(F)F)C(F)(F)F)cc3Cl)c2)ccc1C(F)(F)F [Ia-77]		100	100	100	100		
CCC(=O)NCc1cc(-c2cnn(-c3c(Cl)cc(C(F)(C(F)(F)F)C(F)(F)F)cc3OC(F)F)c2)cnc1Cl [Ia-160]		100	100			100	
O=C(NCc1cccc(-c2cnn(-c3c(Cl)cc(C(F)(C(F)(F)F)C(F)(F)F)cc3Cl)c2)c1)C1CC1 [Ia-41]	100		100	100	100		
CSc1cc(C(F)(C(F)(F)F)C(F)(F)F)cc(Cl)c1-n1cc(-c2ccc(F)c(CNC(=O)C3CC3)c2)cn1 [Ia-12]	100	83	100	100	100	100	
CCC(=O)NCc1cc(-c2cnn(-c3c(Cl)cc(C4(C(F)(F)F)CC4)cc3Cl)c2)ccc1Cl [Ia-128]	100	100	100		100		
CCC(=O)NCc1cccc(-c2cnn(-c3c(Cl)cc(C(F)(C(F)(F)F)C(F)(F)F)cc3C(F)F)c2)c1 [Ia-39]		100	100			100	
CC(=O)NCc1cc(-c2cnn(-c3c(Cl)cc(S(=O)(=O)C(F)(F)F)cc3Cl)c2)ccc1Cl [Ia-88]		83	100	100	100	100	
CC(=O)N(C)Cc1cc(-c2cnn(-c3c(F)cc(C(F)(C(F)(F)F)C(F)(F)F)cc3Br)c2)ccc1Cl [Ia-100]		100	100			100	
CC(=O)NCc1cccc(-c2cnn(-c3c(Cl)cc(C(F)(C(F)(F)F)C(F)(F)F)cc3C(F)(F)F)c2)c1F [Ia-151]	100	100	100	100	100		
CCCN(Cc1cc(-c2cnn(-c3c(Cl)cc(C(F)(C(F)(F)F)C(F)(F)F)cc3Cl)c2)ccc1Cl)C(C)=O [Ia-112]		100	100			90	
CCC(=O)NCc1c(F)ccc(-c2cnn(-c3c(Cl)cc(C(F)(C(F)(F)F)C(F)(F)F)cc3Cl)c2)c1F [Ia-148]	100	100	100	100	100		
CC(=O)N(C)Cc1cc(-c2cnn(-c3c(Cl)cc(C(F)(C(F)(F)F)C(F)(F)F)cc3OC(F)(F)F)c2)ccc1Cl [Ia-85]		100	100			100	
CS(=O)(=O)NCc1cc(-c2cnn(-c3c(Cl)cc(C(F)(C(F)(F)F)C(F)(F)F)cc3Cl)c2)ccc1Cl [Ic-01]	90	100	100	100	100	100	
CCC(=O)NCc1cc(-c2cnn(-c3c(Cl)cc(C(F)(C(F)(F)F)C(F)(F)F)cc3Br)c2)ccc1Cl [Ia-89]		100	100			90	
